Literature values as cited in patent US20150196708A1, “SYSTEMS, METHODS AND COMPOSITIONS FOR IMPROVED TREATMENT OF ACIDOSIS” (The Regents of the University of California, priority 2012, published 2015).

Tests used:
[1] = tested on: patients with acidosis; conditions: literature (Cooper et al., 1990; Leung et al., 1994)
[2] = room temperature; incorporates CO2(aq)/H2CO3(aq) equilibrium

O=C([O-])O.[Na+] [bicarbonate, sodium bicarbonate]
clinical benefit in human studies [1]: no more beneficial effect than the administration of similar quantities of sodium chloride

O=C(O)O [carbonic acid]
Ka1 (deprotonation) [2]: 4.3×10^−7
